# Assay results reported in ChEMBL document CHEMBL4340506, “Inhibition of a viral prolyl hydroxylase” (Bioorg Med Chem, 2019).
# Active and inactive are the calls of the source. The rule behind the calls is not given here. Where a SMILES comes first, the peptide text is derived from it. [ ]: non-standard residue; d: D form. Pro(cis-4-F) = O=C(O)[C@@H]1C[C@H](F)CN1; Hyp = O=C(O)[C@@H]1C[C@@H](O)CN1
# Biological target: Hypoxia-inducible factor 1-alpha inhibitor (Homo sapiens, UniProt Q9NWT6)
# Experiment: Inhibition of recombinant human FIH using 2OG as substrate and Fe2 as co-factor assessed as hydroxylation incubated for 15 mins in presence of L-ascorbate by LC-MS analysis
# Hypoxia-inducible factor 1-alpha inhibitor, sequence (Q9NWT6 whole entry): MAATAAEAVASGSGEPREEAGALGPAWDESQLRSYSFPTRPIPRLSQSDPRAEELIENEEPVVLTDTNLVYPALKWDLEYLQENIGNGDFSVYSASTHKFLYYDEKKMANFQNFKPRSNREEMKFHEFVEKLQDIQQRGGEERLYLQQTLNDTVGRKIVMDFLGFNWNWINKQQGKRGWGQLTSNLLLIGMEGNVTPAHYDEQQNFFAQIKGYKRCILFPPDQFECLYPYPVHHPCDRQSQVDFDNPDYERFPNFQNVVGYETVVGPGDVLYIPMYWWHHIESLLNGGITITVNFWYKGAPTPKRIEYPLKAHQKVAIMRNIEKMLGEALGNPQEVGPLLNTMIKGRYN
row,SMILES,IC50
1,O=c1c(-n2ccnn2)c[nH]n1-c1cc(N2CCOCC2)ncn1 [MOLIDUSTAT],31 µM

# Biological target: T1, Prolyl 4-hydroxylase (Paramecium bursaria Chlorella virus 1) (UniProt Q84406)
# T1 sequence (whole entry): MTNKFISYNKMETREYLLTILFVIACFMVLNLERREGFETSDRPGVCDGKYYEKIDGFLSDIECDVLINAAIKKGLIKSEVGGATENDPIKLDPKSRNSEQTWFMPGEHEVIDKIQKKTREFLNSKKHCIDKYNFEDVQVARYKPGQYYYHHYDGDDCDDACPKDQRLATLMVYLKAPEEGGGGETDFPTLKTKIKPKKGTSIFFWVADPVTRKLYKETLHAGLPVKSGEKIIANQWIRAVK
# Experiment: Substrate activity at N-terminal His6-tagged recombinant Paramecium bursaria chlorella virus 1 CPH expressed in Escherichia coli Rosetta 2 (DE3) cells assessed as succinate production at 500 uM incubated for 60 s in presence of 2OG and in absence of L-ascorbate and using Fe2 as cofactor by 1H NMR spectroscopy
row,SMILES,Activity
1,C[C@H](NC(=O)[C@@H]1CCCN1)C(=O)N1CCC[C@H]1C(=O)N[C@@H](CCCCN)C(=O)N1C[C@H](O)C[C@H]1C(=O)N[C@@H](C)C(=O)N1CCC[C@H]1C(=O)N[C@@H](CCCCN)C(=O)O (H-PAPK[Hyp]APK-OH),Active

# Biological target: T1, Prolyl 4-hydroxylase (Paramecium bursaria Chlorella virus 1)
# Experiment: Substrate activity at N-terminal His6-tagged recombinant Paramecium bursaria chlorella virus 1 CPH expressed in Escherichia coli Rosetta 2 (DE3) cells assessed as substrate hydroxylation at 100 uM incubated for 16 hrs in presence of 2OG by MALDI TOF MS analysis
row,SMILES,Activity
1,C[C@H](NC(=O)[C@H](CCCCN)NC(=O)[C@@H]1C[C@@H](O)CN1C(=O)[C@H](C)NC(=O)[C@@H]1CCCN1)C(=O)N[C@@H](C)C(=O)N1CCC[C@H]1C(=O)N[C@@H](CCCCN)C(=O)O (H-PA[Hyp]KAAPK-OH),inactive
2,C[C@H](NC(=O)[C@H](CS)NC(=O)[C@H](CCCCN)NC(=O)[C@@H]1C[C@@H](O)CN1C(=O)[C@H](C)NC(=O)[C@@H]1CCCN1)C(=O)N1CCC[C@H]1C(=O)N[C@@H](CCCCN)C(=O)O (H-PA[Hyp]KCAPK-OH),inactive
3,C[C@H](NC(=O)[C@H](CC(=O)O)NC(=O)[C@H](CCCCN)NC(=O)[C@@H]1C[C@@H](O)CN1C(=O)[C@H](C)NC(=O)[C@@H]1CCCN1)C(=O)N1CCC[C@H]1C(=O)N[C@@H](CCCCN)C(=O)O (H-PA[Hyp]KDAPK-OH),inactive
4,C[C@H](NC(=O)[C@H](CCC(=O)O)NC(=O)[C@H](CCCCN)NC(=O)[C@@H]1C[C@@H](O)CN1C(=O)[C@H](C)NC(=O)[C@@H]1CCCN1)C(=O)N1CCC[C@H]1C(=O)N[C@@H](CCCCN)C(=O)O (H-PA[Hyp]KEAPK-OH),inactive
5,C[C@H](NC(=O)[C@H](Cc1ccccc1)NC(=O)[C@H](CCCCN)NC(=O)[C@@H]1C[C@@H](O)CN1C(=O)[C@H](C)NC(=O)[C@@H]1CCCN1)C(=O)N1CCC[C@H]1C(=O)N[C@@H](CCCCN)C(=O)O (H-PA[Hyp]KFAPK-OH),inactive
6,C[C@H](NC(=O)CNC(=O)[C@H](CCCCN)NC(=O)[C@@H]1C[C@@H](O)CN1C(=O)[C@H](C)NC(=O)[C@@H]1CCCN1)C(=O)N1CCC[C@H]1C(=O)N[C@@H](CCCCN)C(=O)O (H-PA[Hyp]KGAPK-OH),inactive
7,C[C@H](NC(=O)[C@H](Cc1cnc[nH]1)NC(=O)[C@H](CCCCN)NC(=O)[C@@H]1C[C@@H](O)CN1C(=O)[C@H](C)NC(=O)[C@@H]1CCCN1)C(=O)N1CCC[C@H]1C(=O)N[C@@H](CCCCN)C(=O)O (H-PA[Hyp]KHAPK-OH),inactive
8,CC[C@H](C)[C@H](NC(=O)[C@H](CCCCN)NC(=O)[C@@H]1C[C@@H](O)CN1C(=O)[C@H](C)NC(=O)[C@@H]1CCCN1)C(=O)N[C@@H](C)C(=O)N1CCC[C@H]1C(=O)N[C@@H](CCCCN)C(=O)O (H-PA[Hyp]KIAPK-OH),inactive
9,C[C@H](NC(=O)[C@H](CCCCN)NC(=O)[C@H](CCCCN)NC(=O)[C@@H]1C[C@@H](O)CN1C(=O)[C@H](C)NC(=O)[C@@H]1CCCN1)C(=O)N1CCC[C@H]1C(=O)N[C@@H](CCCCN)C(=O)O (H-PA[Hyp]KKAPK-OH),inactive
10,CC(C)C[C@H](NC(=O)[C@H](CCCCN)NC(=O)[C@@H]1C[C@@H](O)CN1C(=O)[C@H](C)NC(=O)[C@@H]1CCCN1)C(=O)N[C@@H](C)C(=O)N1CCC[C@H]1C(=O)N[C@@H](CCCCN)C(=O)O (H-PA[Hyp]KLAPK-OH),inactive
11,CSCC[C@H](NC(=O)[C@H](CCCCN)NC(=O)[C@@H]1C[C@@H](O)CN1C(=O)[C@H](C)NC(=O)[C@@H]1CCCN1)C(=O)N[C@@H](C)C(=O)N1CCC[C@H]1C(=O)N[C@@H](CCCCN)C(=O)O (H-PA[Hyp]KMAPK-OH),inactive
12,C[C@H](NC(=O)[C@H](CC(N)=O)NC(=O)[C@H](CCCCN)NC(=O)[C@@H]1C[C@@H](O)CN1C(=O)[C@H](C)NC(=O)[C@@H]1CCCN1)C(=O)N1CCC[C@H]1C(=O)N[C@@H](CCCCN)C(=O)O (H-PA[Hyp]KNAPK-OH),inactive
13,C[C@H](NC(=O)[C@H](CCC(N)=O)NC(=O)[C@H](CCCCN)NC(=O)[C@@H]1C[C@@H](O)CN1C(=O)[C@H](C)NC(=O)[C@@H]1CCCN1)C(=O)N1CCC[C@H]1C(=O)N[C@@H](CCCCN)C(=O)O (H-PA[Hyp]KQAPK-OH),inactive
14,C[C@H](NC(=O)[C@H](CCCNC(=N)N)NC(=O)[C@H](CCCCN)NC(=O)[C@@H]1C[C@@H](O)CN1C(=O)[C@H](C)NC(=O)[C@@H]1CCCN1)C(=O)N1CCC[C@H]1C(=O)N[C@@H](CCCCN)C(=O)O (H-PA[Hyp]KRAPK-OH),inactive
15,C[C@H](NC(=O)[C@H](CO)NC(=O)[C@H](CCCCN)NC(=O)[C@@H]1C[C@@H](O)CN1C(=O)[C@H](C)NC(=O)[C@@H]1CCCN1)C(=O)N1CCC[C@H]1C(=O)N[C@@H](CCCCN)C(=O)O (H-PA[Hyp]KSAPK-OH),inactive
16,C[C@H](NC(=O)[C@@H]1CCCN1)C(=O)N1C[C@H](O)C[C@H]1C(=O)N[C@@H](CCCCN)C(=O)N[C@H](C(=O)N[C@@H](C)C(=O)N1CCC[C@H]1C(=O)N[C@@H](CCCCN)C(=O)O)[C@@H](C)O (H-PA[Hyp]KTAPK-OH),inactive
17,CC(C)[C@H](NC(=O)[C@H](CCCCN)NC(=O)[C@@H]1C[C@@H](O)CN1C(=O)[C@H](C)NC(=O)[C@@H]1CCCN1)C(=O)N[C@@H](C)C(=O)N1CCC[C@H]1C(=O)N[C@@H](CCCCN)C(=O)O (H-PA[Hyp]KVAPK-OH),inactive
18,C[C@H](NC(=O)[C@H](Cc1c[nH]c2ccccc12)NC(=O)[C@H](CCCCN)NC(=O)[C@@H]1C[C@@H](O)CN1C(=O)[C@H](C)NC(=O)[C@@H]1CCCN1)C(=O)N1CCC[C@H]1C(=O)N[C@@H](CCCCN)C(=O)O (H-PA[Hyp]KWAPK-OH),inactive
19,C[C@H](NC(=O)[C@H](Cc1ccc(O)cc1)NC(=O)[C@H](CCCCN)NC(=O)[C@@H]1C[C@@H](O)CN1C(=O)[C@H](C)NC(=O)[C@@H]1CCCN1)C(=O)N1CCC[C@H]1C(=O)N[C@@H](CCCCN)C(=O)O (H-PA[Hyp]KYAPK-OH),inactive
20,C[C@H](NC(=O)[C@@H]1CCCN1)C(=O)N1C[C@H](O)C[C@H]1C(=O)N[C@@H](CCCCN)C(=O)N1C[C@@H](F)C[C@H]1C(=O)N[C@@H](C)C(=O)N1CCC[C@H]1C(=O)N[C@@H](CCCCN)C(=O)O (H-PA[Hyp]K[Pro(cis-4-F)]APK-OH),Active

# Biological target: T1, Prolyl 4-hydroxylase (Paramecium bursaria Chlorella virus 1)
# Experiment: Substrate activity at N-terminal His6-tagged recombinant Paramecium bursaria chlorella virus 1 CPH expressed in Escherichia coli Rosetta 2 (DE3) cells assessed as succinate production at 500 uM incubated for 60 s in presence of 2OG and L-ascorbate and using Fe2 as cofactor by 1H NMR spectroscopy
row,SMILES,Activity
1,C[C@H](NC(=O)[C@@H]1CCCN1)C(=O)N1CCC[C@H]1C(=O)N[C@@H](CCCCN)C(=O)N1C[C@H](O)C[C@H]1C(=O)N[C@@H](C)C(=O)N1CCC[C@H]1C(=O)N[C@@H](CCCCN)C(=O)O (H-PAPK[Hyp]APK-OH),Active

# Biological target: T2, Prolyl 4-hydroxylase (Paramecium bursaria Chlorella virus 1, UniProt Q84406)
# T2 sequence (Q84406 whole entry): T1 sequence (whole entry)
# Experiment: Inhibition of N-terminal His6-tagged recombinant Paramecium bursaria chlorella virus 1 CPH expressed in Escherichia coli Rosetta 2 (DE3) cells pre-incubated for 5 mins before 2OG as substrate and Fe2 as co-factor addition in presence of L-ascorbate and measured after 5 mins MALDI TOF MS analysis
SMILES,IC50,Ki
O=C(O)c1ccc(O)c2ncccc12,47.2 µM,
O=C(O)C[C@H](O)C(=O)O,> 1000 µM,
O=C(O)CC[C@@H](O)C(=O)O,> 500 µM,
O=C(O)CC[C@H](O)C(=O)O,> 500 µM,
CN(C)NC(=O)CCC(=O)O,> 100 µM,
O=C(O)c1ccnc(C(=O)O)c1,5.3 µM,3.28 µM
O=C(O)CCNc1cc(N2CCc3ccccc3CC2)nc(-c2ccccn2)n1,15.9 µM,
O=C(O)/C=C(/CC(=O)O)C(=O)O,> 1000 µM,
CC(C)(C)OC(=O)c1ccc(-n2[nH]cc(-n3ccnn3)c2=O)nc1,2.5 µM,
O=C(O)CNC(=O)c1ncc(-c2cccc(Cl)c2)cc1O,< 1 µM,0.28 µM
Cc1ccsc1C(NC(=O)c1ccccc1)c1cc(Cl)c2cccnc2c1O (stereo unspecified),> 100 µM,
CCCCCCCCOC(=O)c1ccc(O)c2ncccc12,> 100 µM,
O=C(O)CNC(=O)c1c(O)n(C2CCCCC2)c(=O)n(C2CCCCC2)c1=O,13.4 µM,7.65 µM
O=C(O)CNC(=O)c1nc(Cl)c2ccccc2c1O,4.5 µM,0.71 µM
O=C(O)c1c[nH]c2c(ccc3cccnc32)c1=O,15.7 µM,
O=C(O)CC(O)(CC(=O)O)C(=O)O [CITRIC ACID],213 µM,
O=C(O)/C=C/C(=O)O [FUMARIC ACID],> 1000 µM,
N[C@@H](CCC(=O)O)C(=O)O [GLUTAMIC ACID],> 1000 µM,
O=C(O)C[C@H](C(=O)O)[C@@H](O)C(=O)O [ISOCITRIC ACID],284 µM,
O=c1c(-n2ccnn2)c[nH]n1-c1cc(N2CCOCC2)ncn1 [MOLIDUSTAT],26.8 µM,16.1 µM
O=C(O)CNC(=O)C(=O)O [N-OXALYLGLYCINE],21.2 µM,48.7 µM
O=C(O)CC(=O)C(=O)O [OXALOACETATE],> 1000 µM,
CC(=O)C(=O)O [PYRUVATE],> 1000 µM,
O=C(O)CCC(=O)O [SUCCINIC ACID],> 1000 µM,

# Biological target: T3, Prolyl 3-hydroxylase OGFOD1 (Homo sapiens, UniProt Q8N543)
# T3 sequence (Q8N543 whole entry): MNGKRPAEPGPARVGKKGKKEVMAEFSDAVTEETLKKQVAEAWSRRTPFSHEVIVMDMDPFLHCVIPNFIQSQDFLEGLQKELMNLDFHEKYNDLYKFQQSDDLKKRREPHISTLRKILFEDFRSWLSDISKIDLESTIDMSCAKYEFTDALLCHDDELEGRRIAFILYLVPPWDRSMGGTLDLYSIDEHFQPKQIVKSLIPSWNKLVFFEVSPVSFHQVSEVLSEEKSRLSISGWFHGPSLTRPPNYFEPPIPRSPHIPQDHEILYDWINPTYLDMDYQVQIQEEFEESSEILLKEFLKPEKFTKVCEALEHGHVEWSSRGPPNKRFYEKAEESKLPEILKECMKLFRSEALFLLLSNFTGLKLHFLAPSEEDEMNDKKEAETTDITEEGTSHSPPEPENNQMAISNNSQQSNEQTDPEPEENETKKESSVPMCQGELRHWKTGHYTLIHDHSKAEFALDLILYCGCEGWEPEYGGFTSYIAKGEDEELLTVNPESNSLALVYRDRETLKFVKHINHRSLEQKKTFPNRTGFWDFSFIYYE
# Experiment: Inhibition of recombinant human OGFOD1 using 2OG as substrate and Fe2 as co-factor assessed as hydroxylation incubated for 15 mins in presence of L-ascorbate by MALDI-TOF MS analysis
row,SMILES,IC50
1,CC(C)(C)OC(=O)c1ccc(-n2[nH]cc(-n3ccnn3)c2=O)nc1,5.1 µM
2,O=C(O)CNC(=O)c1c(O)n(C2CCCCC2)c(=O)n(C2CCCCC2)c1=O,2.1 µM
3,O=c1c(-n2ccnn2)c[nH]n1-c1cc(N2CCOCC2)ncn1 [MOLIDUSTAT],< 1 µM
